According to US3959248A, “Analogs of thyrotropin-releasing hormone” (Merck & Co., Inc., priority 1975, dated 1976):

Tests used:
thyrotropin release = test: thyrotropin releasing hormone activity (TS, thyrotropin stimulation), in vivo assay; conditions: multiple of the control TS activity of TRH, which has the value 1
Method: (§1) The tripeptides of the present invention are found to have anti-depressant activity and thyrotropin releasing hormone activity. Their activity as anti-depressants is as central nervous system (CNS) stimulants and was determined by testing representative tripeptides of the present invention using in vivo assay based on restoration of anti-convulsant action of methazolamide in picolinic acid treated mice. The thyrotropin releasing hormone activity of the present tripeptides was determined using the in vivo assay substantially as described in "Vitamins and Hormone" R.S. Harris et al, 29, 3-4 (1971).
(§2) The following table contains activity data for a number of representative peptides of the present invention. The protocols used to obtain the data were those described above. The results are expressed numerically as multiples of the TS (thyrotropin stimulation) and AD (anti-depressant) activity compared to the control TS and AD activities of TRH which have the value 1. The designation S.N. is used to indicate substantially no detectable activity at the dosage level tested.

[1] = tested on: picolinic acid treated mice; test: anti-depressant (CNS stimulant) activity: restoration of anti-convulsant action of methazolamide in picolinic acid treated mice; conditions: multiple of the control AD activity of TRH, which has the value 1, in vivo
Method: as §1, §2

NC(=O)[C@@H]1CCCN1C(=O)[C@H](Cc1c[nH]cn1)NC(=O)[C@@H]1CCC(=O)N1 [TRH, L-pyroglutamyl-L-histidyl-L-proline amide]
TS (thyrotropin stimulation) activity (thyrotropin release): 1
AD (anti-depressant) activity [1]: 1
